We go through 1 compound from US4778796A, “ω-(3-pyridyl)alkenamide derivatives and anti-allergenic pharmaceutical compositions containing same” (Dainippon Pharmaceutical Co., Ltd., priority 1985, dated 1988).

Counter-ions that a name gives are not always drawn. Like-named read-outs stand apart in the source and are kept apart here.

In one series the test system is human basophils. As to the kind of experiment: Inhibitory effect on histamine release induced by anti-human IgE antibody from healthy human basophils. It counts as cell-based. Particulars: Homo sapiens, read-out: Histamine release inhibit. IC50. Here is the method:
(3) Inhibitory effect on histamine release induced by anti-human IgE antibody from healthy human basophils:
Basophils from nonallergic volunteers were collected by the method of Levy and Osler [cf. […] The cells were washed once with a cold Tris-A buffer at pH 7.4 (25 mM Tris, 120 mM NaCl, 5 mM KCl and 0.03% human serum albumin) containing 4 mM EDTA and twice with Tris-A buffer. After washing, the cells were resuspended at 5-10×10^6 leukocytes/ml in Tris-ACM buffer at pH 7.6 (Tris-A buffer, 0.6 mM CaCl2 and 1 mM MgCl2). One ml of the cell suspension was incubated with 0.1 ml of a solution of test compound or vehicle for 15 minutes at 37° C., and then for further 45 minutes with 0.1 ml of anti-human IgE antibody. After ice-cooling, the reaction mixtures were centrifuged at 1,200 rpm for 8 minutes at 4° C. The supernatant fluids and the cells were analysed separately for histamine by a modification of the spectrophotofluorometric technique of Shore et al. [cf. […] Histamine release rate was calculated according to the following equation. [formula] A: total histamine (supernatant+cell) B: supernatant histamine without anti-IgE
C: supernatant histamine with anti-IgE
Inhibitory rate was calculated from histamine release rates without vs. with test compound.

The subject of series [1] is contact hypersensitivity to oxazolone. In words: Inhibitory effect on contact hypersensitivity to oxazolone in mice. The class given is in vivo, mouse (male ICR). Conditions: topical, 1.0 mg/ear; 24 hours after challenge. How it is done:
(3) Inhibitory effect on contact hypersensitivity to oxazolone in mice:
This test was carried out by the method of Evans et al. [cf. Brit.
Male ICR mice (18-20 g) were used. The abdominal region of the mice was carefully clipped with an electric clipper, and 0.1 ml of a 0.5 w/v % oxazolone solution in absolute ethanol was gently rubbed into the clipped area. Five days after the sensitization 20 μl of a 0.5 w/v % oxazolone solution in acetone or chloroform, or the solution containing test compound was applied to both sides of the right ear. The left ear was not treated. Twenty-four hours after the challenge, the animals were sacrificed with diethyl ether. The circular parts (5.5 mm in diameter) of both ears were removed by punching and then weighed. The inhibitory rate was determined by comparing the ear swelling of the mice treated with oxazolone containing test compound with that of the mice treated with oxazolone. Each group of 8 mice was used for each dose of the test compound.

The subject of series [2] is histamine-induced contraction of isolated guinea pig trachea. In words: Inhibitory effect on histamine-induced contraction of isolated guinea pig trachea. Further details: species or system guinea pig (male Hartley). Conditions: 3×10^-5 M histamine; isolated guinea pig trachea; read-out: Anti-hist. activity IC50. How it is done: (2) Inhibitory effect on histamine-induced contraction of isolated guinea pig trachea:
Male Hartley guinea pigs (400-700 g) were used. Zig-zag strips of guinea pig trachea were prepared by the method of Emmerson and Mackay [cf. J. Pharm. […] Dose-response curves for histamine were obtained before and 5 minutes after the addition of test compounds. Inhibitory rate was calculated from contraction heights in 3×10^-5 M of histamine without vs. with test compound.

For the next series, the system named is experimental asthma. As to the kind of experiment: Inhibitory effect on experimental asthma in rats. It counts as in vivo, rat (male Wistar). Conditions: Rattus norvegicus, po. How it is done:
(2) Inhibitory effect on experimental asthma in rats: This test was carried out by the method of Church and Miller [cf. Brit. […] Male Wistar rats (200-250 g) were sensitized by an intraperitoneal injection of 1 ml of a 0.01% egg albumin solution containing 1 mg of Al(OH)3. Two weeks later, the rats were anesthetized with 1.3 g/kg of urethane. The trachea and jugular vein were cannulated. Respiratory volume and velocity were measured by attaching one end of the tracheal cannula to respiratory volume meter connected to a carrier amplifier and an integrator. The rats were challenged by an intravenous injection of 4 mg/kg of egg ablumin 30 minutes after the anesthesia. Test compounds, dissolved or suspended in a 0.5% aqueous tragacanth solution, were administered orally 1 hour before the antigen challenge. Each group of 4 rats was used for each dose of the test compound. ED50 values were calculated from the best fit linear regression line of inhibitory rates of respiratory volume and velocity in each dose.

The nature of series [3]: Acute lethal toxicity in mice. Conditions: mouse, in vivo; oral, mortality observed for two weeks. How it is done:
Test 3 Acute lethal toxicity in mice
Test compounds were suspended in a 0.5% aqueous tragacanth solution. LD50 values were calculated according to the method of Litchfield and Wilcoxon [cf. J. Pharmacol. Exp. Ther., 96, 99 (1949)].

Series [4] has as its system passive cutaneous anaphylaxis (PCA). In words: Inhibitory effect on passive cutaneous anaphylaxis (PCA) in rats. The class given is in vivo, rat (male Wistar). Particulars: Rattus norvegicus, po, read-out: Inhibition (PCA in rats). Here is the method:
(1) Inhibitory effect on passive cutaneous anaphylaxis (PCA) in rats:
This test was carried out by the method of Perper et al. [cf.
Male Wistar rats (130-180 g) were injected with 0.1 ml of a dilute solution of mouse antiserum to egg albumin in two sites of the shaved ventral skin. Forty-eight hours later each rat was challenged by an intravenous injection of 2 mg of the antigen together with 1 ml of a 0.5% Evan's blue saline solution. The rats were sacrificed 30 minutes after the challenge. The area of the blueing lesions was measured on the undersurface of the skin. The average value of the two lesions of each rat was regarded as the response of the rat. Test compounds in a dose of 20 mg/kg, dissolved or suspended in a 0.5% aqueous tragacanth solution, were administered orally 1 hour before the antigen challenge. The inhibitory rate was determined by comparing the responses of the rats given each test compound with those of the rats given only a 0.5% aqueous tragacanth solution. Each group of 3 rats was used for each test compound. The mouse antiserum to egg albumin was produced by the method of Levine and Vaz [cf. Int. Arch. Allergy Appl.

The next series deals with T1, 5-lipoxygenase (Cavia porcellus, UniProt A0A286X958).
T1 construct: The cytosol fraction of peritoneal exudate cells from male Hartley guinea pigs (400-700 g) was used as 5-lipoxygenase; from tissue; host or cells: cytosol fraction of peritoneal exudate cells (leukocytes) of male Hartley guinea pigs
T1 sequence (A0A286X958 1-674): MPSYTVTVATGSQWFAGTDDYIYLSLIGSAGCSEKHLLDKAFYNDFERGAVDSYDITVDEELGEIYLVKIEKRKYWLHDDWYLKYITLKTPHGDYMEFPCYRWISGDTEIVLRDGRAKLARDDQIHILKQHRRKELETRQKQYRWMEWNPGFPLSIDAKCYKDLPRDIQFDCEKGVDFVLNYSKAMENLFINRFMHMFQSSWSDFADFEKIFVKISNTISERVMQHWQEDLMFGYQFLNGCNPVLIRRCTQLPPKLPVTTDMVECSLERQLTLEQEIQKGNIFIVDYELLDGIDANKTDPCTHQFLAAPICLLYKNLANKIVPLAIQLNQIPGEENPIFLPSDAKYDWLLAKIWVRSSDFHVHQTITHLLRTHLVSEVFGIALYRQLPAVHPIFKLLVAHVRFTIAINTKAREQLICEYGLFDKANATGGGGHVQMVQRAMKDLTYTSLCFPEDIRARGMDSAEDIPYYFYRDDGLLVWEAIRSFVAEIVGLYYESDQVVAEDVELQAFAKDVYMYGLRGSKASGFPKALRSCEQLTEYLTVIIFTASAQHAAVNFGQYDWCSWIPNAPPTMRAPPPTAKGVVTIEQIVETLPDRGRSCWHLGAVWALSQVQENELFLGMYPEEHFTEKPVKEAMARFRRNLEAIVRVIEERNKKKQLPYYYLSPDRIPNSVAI
In words: Inhibitory effect on 5-lipoxygenase activity in guinea pig leukocytes. Conditions: 10^-4 M. It counts as biochemical, guinea pig (male Hartley). Here is the method: (1) Inhibitory effect on 5-lipoxygenase activity in guinea pig leukocytes:
This test was carried out by the method of Miyamoto and Obata (cf. "Perspectives in Prostaglandin Research," ed. by Y. Shiokawa et al., Excepta Medica, Amsterdam-Oxford-Princeton, 1983, p78) with minor modifications.
The cytosol fraction of peritoneal exudate cells from male Hartley guinea pigs (400-700 g) was used as 5-lipoxygenase. The standard reaction mixture contained 50 mM potassium phosphate buffer, 1 mM CaCl2, 1 mM glutathione, 1 mM adenosine triphosphoric acid, 10 μM indomethacin and the enzyme. The mixture was incubated for 5 minutes at 30° C. after addition of [1-^14 C]arachidonic acid (0.02 μCi). The reaction was terminated by addition of 0.6 ml of the cold organic solvents (diethyl ether/methanol/0.2M citric acid=30/4/1). The organic layer (300 μl) was applied onto a precoated silica gel 60F254 glass plate (E. Merck, West Germany). Radioactivity on the plate was monitored by a radiochromatogram scanner (Packard, U.S.A.). 5-Lipoxygenase activity was calculated according to the following equation. [formula]
The effects of the test compounds were expressed in terms of percent inhibition.

Take `CN1CCC(=C2c3ccccc3CC(=O)c3sccc32)CC1` [Ketotifen fumarate, reference compound]: the results for the IC50 (in the series with human basophils; in series [2]) were over 100000 nM and 2.9 nM, respectively. Further, in series [1], the “% Inhibition of ear swelling” value was determined as 49.0%. The ED50 with experimental asthma (read-out: ED50, respiratory velocity) came to 20.5 mg/kg; in the series with experimental asthma (read-out: ED50, respiratory volume), 22.6 mg/kg. The same compound displayed an LD50 at 336 h in series [3] of 537 mg/kg. Further, the inhibition in vivo at 20 mg/kg in series [4] is 54.7%. Besides, the “5-lipoxygenase inhibiting activity (in words)” value at 5-lipoxygenase is “did not exhibit any significant inhibiting activity”. For the same compound, the inhibition at 100 µM at 5-lipoxygenase (read-out: 5-Lipoxygenase inhibit. activity, Inhibition) worked out at 11.5%.
